Experimental data from the supplement of paper PMC11451515.

System: SEM cells
Assay: cell viability relative to DMSO control; higher = less cytotoxic
Settings: 48 h
Summary of the method: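 Viability values are per-plate percentages of DMSO wells, with background from cell-free wells. Library compounds in DMSO were pin-dosed, in an 11-point threefold series from 47 μM to 0.79 nM, onto NOMO1 or SEM (500 cells/well) or P12-Ichikawa (1000 cells/well) leukemia cells in 1536-well plates (5 μl). Those cells had been adapted for at least four passages in each medium, and CellTiter-Glo One luminescence was read after 48 h at 37°C.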

[1] = HPLM + 10% dialyzed FBS, 0.000781 µM
[2] = HPLM + 10% dialyzed FBS, 0.00234 µM
[3] = HPLM + 10% dialyzed FBS, 0.00702 µM
[4] = HPLM + 10% dialyzed FBS, 0.0211 µM
[5] = HPLM + 10% dialyzed FBS, 0.0632 µM
[6] = HPLM + 10% dialyzed FBS, 0.19 µM
[7] = HPLM + 10% dialyzed FBS, 0.569 µM
[8] = HPLM + 10% dialyzed FBS, 1.71 µM
[9] = HPLM + 10% dialyzed FBS, 5.12 µM
[10] = HPLM + 10% dialyzed FBS, 15.4 µM
[11] = HPLM + 10% dialyzed FBS, 46.1 µM
[12] = RPMI 5 mM glucose + 10% FBS, 0.000781 µM
[13] = RPMI 5 mM glucose + 10% FBS, 0.00234 µM
[14] = RPMI 5 mM glucose + 10% FBS, 0.00702 µM
[15] = RPMI 5 mM glucose + 10% FBS, 0.0211 µM
[16] = RPMI 5 mM glucose + 10% FBS, 0.0632 µM
[17] = RPMI 5 mM glucose + 10% FBS, 0.19 µM
[18] = RPMI 5 mM glucose + 10% FBS, 0.569 µM
[19] = RPMI 5 mM glucose + 10% FBS, 1.71 µM
[20] = RPMI 5 mM glucose + 10% FBS, 5.12 µM
[21] = RPMI 5 mM glucose + 10% FBS, 15.4 µM
[22] = RPMI 5 mM glucose + 10% FBS, 46.1 µM
[23] = RPMI 5 mM glucose + 10% dialyzed FBS, 0.000781 µM
[24] = RPMI 5 mM glucose + 10% dialyzed FBS, 0.00234 µM
[25] = RPMI 5 mM glucose + 10% dialyzed FBS, 0.00702 µM
[26] = RPMI 5 mM glucose + 10% dialyzed FBS, 0.0211 µM
[27] = RPMI 5 mM glucose + 10% dialyzed FBS, 0.0632 µM
[28] = RPMI 5 mM glucose + 10% dialyzed FBS, 0.19 µM
[29] = RPMI 5 mM glucose + 10% dialyzed FBS, 0.569 µM
[30] = RPMI 5 mM glucose + 10% dialyzed FBS, 1.71 µM
[31] = RPMI 5 mM glucose + 10% dialyzed FBS, 5.12 µM
[32] = RPMI 5 mM glucose + 10% dialyzed FBS, 15.4 µM
[33] = RPMI 5 mM glucose + 10% dialyzed FBS, 46.1 µM

| SMILES | cell viability [1] [%] | cell viability [2] [%] | cell viability [3] [%] | cell viability [4] [%] | cell viability [5] [%] | cell viability [6] [%] | cell viability [7] [%] | cell viability [8] [%] | cell viability [9] [%] | cell viability [10] [%] | cell viability [11] [%] | cell viability [12] [%] | cell viability [13] [%] | cell viability [14] [%] | cell viability [15] [%] | cell viability [16] [%] | cell viability [17] [%] | cell viability [18] [%] | cell viability [19] [%] | cell viability [20] [%] | cell viability [21] [%] | cell viability [22] [%] | cell viability [23] [%] | cell viability [24] [%] | cell viability [25] [%] | cell viability [26] [%] | cell viability [27] [%] | cell viability [28] [%] | cell viability [29] [%] | cell viability [30] [%] | cell viability [31] [%] | cell viability [32] [%] | cell viability [33] [%] |
| --- | --- | --- | --- | --- | --- | --- | --- | --- | --- | --- | --- | --- | --- | --- | --- | --- | --- | --- | --- | --- | --- | --- | --- | --- | --- | --- | --- | --- | --- | --- | --- | --- | --- |
| Cc1cc2c(F)c(Oc3ncnn4cc(OC[C@@H](C)O)c(C)c34)ccc2[nH]1 | 107 | 108 | 101 | 102 | 106 | 104 | 88.7 | 83.2 | 70.5 | 38.6 | 26.6 | 117 | 117 | 141 | 124 | 110 | 99.4 | 100 | 85.3 | 77.6 | 39.7 | 26.2 | 87.5 | 92.6 | 103 | 102 | 92.9 | 89.3 | 92.4 | 79.3 | 70.3 | 26 | 13.7 |
| COc1cc(OC)c(/C=C/[S+](=O)([O-])Cc2ccc(OC)c(NCC(=O)[O][Na])c2)c(OC)c1 | 123 | 105 | 125 | 125 | 118 | 75.9 | 29.5 | 28.2 | 27 | 21.9 | 13.4 | 109 | 107 | 115 | 112 | 111 | 66.3 | 20 | 17.8 | 15.2 | 9.59 | 7.67 | 121 | 122 | 122 | 120 | 121 | 24.1 | 24.3 | 18.8 | 10.1 | 7.92 | 8.13 |
| O=C(O)c1ccc2c(c1)nc(Nc1cccc(Cl)c1)c1ccncc12 | 103 | 114 | 106 | 105 | 110 | 101 | 117 | 102 | 77.6 | 35.9 | 48.8 | 107 | 108 | 98.5 | 103 | 111 | 127 | 104 | 98.1 | 70.7 | 32.1 | 46 | 103 | 103 | 105 | 99.5 | 107 | 125 | 114 | 102 | 62.2 | 30.4 | 38.5 |
| COc1ccc(C(C)=O)c(O)c1 | 93.7 | 98.2 | 110 | 95.1 | 94.2 | 111 | 108 | 112 | 114 | 121 | 112 | 104 | 121 | 118 | 124 | 87.8 | 114 | 121 | 137 | 120 | 118 | 121 | 105 | 92.2 | 118 | 125 | 108 | 126 | 102 | 133 | 132 | 123 | 117 |
| OC1CCC(Nc2ncc3nc(Nc4c(F)cc(F)cc4F)n([C@@H]4CCOC4)c3n2)CC1 (some centres undefined) | 96.4 | 93.4 | 99.2 | 110 | 118 | 108 | 110 | 107 | 125 | 80.9 | 91.4 | 96.5 | 92.9 | 103 | 95.7 | 105 | 101 | 97.4 | 105 | 95.4 | 40.9 | 99.4 | 90.4 | 111 | 114 | 96.1 | 112 | 116 | 118 | 116 | 100 | 84.3 | 87.3 |
| Cc1cc(C(C)(C)C)c(O)c(C)c1CC1=NCCN1 | 62.6 | 80.2 | 75.4 | 83 | 76.8 | 83.3 | 86.9 | 91.9 | 66.6 | 60.3 | 62.5 | 83.8 | 82.1 | 91.1 | 83.6 | 86.7 | 100 | 102 | 101 | 53.1 | 51.8 | 59.3 | 90.3 | 77.7 | 82.2 | 89.3 | 93.3 | 95.4 | 87.5 | 105 | 77.2 | 57.9 | 55.9 |
| N#Cc1c(NC(=O)c2cccc3ccccc23)sc2c1CCCC2 | 108 | 115 | 116 | 125 | 125 | 105 | 66 | 23.2 | 24.1 | 19.7 | 23 | 119 | 119 | 130 | 125 | 119 | 119 | 48.4 | 20.3 | 16.9 | 15.6 | 17.9 | 122 | 125 | 126 | 137 | 124 | 118 | 53.7 | 25.5 | 26.2 | 18 | 26.1 |
| CNC[C@H](O)c1ccc(O)c(O)c1 | 90.5 | 85.8 | 71.9 | 73.9 | 77.3 | 17.6 | 63 | 68.7 | 61.3 | 70.5 | 53.1 | 104 | 97.3 | 85.6 | 73.1 | 102 | 30.8 | 87.9 | 83.7 | 79.8 | 90.7 | 82.4 | 104 | 111 | 85.8 | 83.3 | 93.3 | 28.2 | 86.5 | 95.3 | 89.5 | 82.1 | 68.9 |
